From US10500166B2, “Methods for the treatment of erectile dysfunction using fispemifene” (QUATRX PHARMACEUTICALS, priority 2007, dated 2019)

What was measured:
Assay type in all cases: in vivo, human
[1] = tested on: estradiol; assay: Phase I repeated dose study 101-50202: serum estradiol
Source text: Fispemifene has been studied in two phase I studies in humans—in a single dose and a repeated dose study. Effect of fispemifene on hormone levels was one main focus of the repeated dose study. The phase I repeated dose study (number 101-50202) was a randomized, double-blind, placebo-controlled 28-day dose-escalation study performed in 31 healthy, elderly men, aged 50-68 years. The main objective of the study was to investigate the tolerability, safety and pharmacokinetics of fispemifene after repeated oral doses, but the study focused also on the effects of fispemifene on serum free and total testosterone, estradiol, and other relevant hormones. The fispemifene doses 10, 30, 100 and 300 mg per day and placebo were administered once every morning as capsules containing 10 mg or 100 mg of fispemifene, or placebo.
The variables for safety and tolerability were adverse events, vital signs, 12-lead ECG, clinical laboratory evaluations, physical examination, ultrasound examinations (mammary glands) and inhibin B. For pharmacokinetics, the concentrations of fispemifene and its metabolite(s) were to be evaluated. For pharmacodynamics, serum concentrations of FSH, LH, estradiol, testosterone, SHBG, prolactin, aldosterone, cortisol and TSH before and during treatment were measured and compared with the concentrations in the placebo-group.

[2] = tested on: free testosterone; assay: Example 3 study in hypogonadal men: serum free testosterone measured by equilibrium dialysis (ITT)
Description: FIG. 6 depicts a graph of the data of the study from Example 3 showing serum free testosterone levels (ng/dL) measured by equilibrium dialysis over time for each of the treatment groups. The bars from left to right for each of the BL (baseline), 2 week, 4 week, and 6 week timepoints (the 6 week timepoint occurred 2 weeks after the discontinuation of study drug at week 4) correspond to the placebo, 100 mg, 200 mg, and 300 mg/day doses, respectively;
(§1) A randomized, double-blind, placebo controlled, parallel-group study of once-daily doses of fispemifene (100, 200, and 300 mg/day) given for 4 weeks was conducted in a population of hypogonadal men. Subjects were required to meet all of the following inclusion criteria at screening and prior to randomization to be eligible for the study:
(§2) There were 77 subjects total. The number of subjects randomized to the 100 mg fispemifene, 200 mg fispemifene, 300 mg fispemifene, and placebo arms were 21, 21, 19, and 16, respectively.
(§3) Subjects were randomly assigned to one of four treatment groups in a 1:1:1:1 ratio: • Treatment A (100 mg): fispemifene 100 mg+placebo+placebo; • Treatment B (200 mg): fispemifene 100 mg+fispemifene 100 mg+placebo; • Treatment C (300 mg): fispemifene 100 mg+fispemifene 100 mg+fispemifene 100 mg; and • Treatment D (Placebo): placebo+placebo+placebo.
(§4) Subjects took one dose (three capsules) of study medication once a day at home for 4 weeks. Capsules were to be taken in the morning immediately after breakfast, with the exception of the morning of the Week 4 visit. Capsules were not to be taken on the morning of the Week 4 visit because trough plasma levels of fispemifene were determined by a blood sample taken at this visit. Each subject was randomly assigned to treatment with one of the 3 different dose regimens of fispemifene or placebo vehicle. Each subject received a 4 week supply of study drug.
(§5) Blood samples were taken from the subjects within 1 week prior to dosing with study drug to establish baseline values; after 2 and 4 weeks of randomization; and 2 weeks after the last dose of study drug. Serum was prepared from those samples and used to determine the mean % change from baseline in total testosterone, free testosterone, SHBG (sex hormone-binding globulin), DHT (dihydrotestosterone), E2 (estradiol), LH (luteinizing hormone), FSH (follicle stimulating hormone), and inhibin B.
1. Percent change from baseline in free testosterone and calculated free testosterone at Weeks 2, 4, and 6;

[3] = tested on: SHBG (sex hormone-binding globulin); assay: Example 3 study in hypogonadal men: serum sex hormone binding globulin (ITT); conditions: Baseline (Visit 2)
Description: as §1, §2, §3, §4, §5
3. Percent change from baseline in SHBG, DHT, E2, LH, FSH, inhibin B, and testosterone/E2 ratio at Weeks 2, 4, and 6.

[4] = 100 mg/day, Week 6 (2 weeks after discontinuation)
[5] = 200 mg/day, Week 6 (2 weeks after discontinuation)
[6] = 300 mg/day, Week 6 (2 weeks after discontinuation)

OCCOCCOc1ccc(/C(=C(/CCCl)c2ccccc2)c2ccccc2)cc1 [Fispemifene, (Z)-2-{2-[4-(4-Chloro-1,2-diphenylbut-1-enyl)phenoxy]ethoxy}ethanol]
Serum estradiol, Mean ([1]; 10 mg/day, Baseline): 106.2 pmol/L
Serum estradiol, Mean ([1]; 10 mg/day, Day 8): 94.7 pmol/L
Serum estradiol, Mean ([1]; 10 mg/day, Day 15): 81.7 pmol/L
Serum estradiol, Mean ([1]; 10 mg/day, Day 22): 116.6 pmol/L
Serum estradiol, Mean ([1]; 10 mg/day, Day 28): 75.0 pmol/L
Serum estradiol, Mean ([1]; 30 mg/day, Baseline): 97.8 pmol/L
Serum estradiol, Mean ([1]; 30 mg/day, Day 8): 105.6 pmol/L
Serum estradiol, Mean ([1]; 30 mg/day, Day 15): 102.4 pmol/L
Serum estradiol, Mean ([1]; 30 mg/day, Day 22): 99.6 pmol/L
Serum estradiol, Mean ([1]; 30 mg/day, Day 28): 87.0 pmol/L
Serum estradiol, Mean ([1]; 100 mg/day, Baseline): 84.3 pmol/L
Serum estradiol, Mean ([1]; 100 mg/day, Day 8): 108.3 pmol/L
Serum estradiol, Mean ([1]; 100 mg/day, Day 15): 111.5 pmol/L
Serum estradiol, Mean ([1]; 100 mg/day, Day 22): 106.3 pmol/L
Serum estradiol, Mean ([1]; 100 mg/day, Day 28): 94.5 pmol/L
Serum estradiol, Mean ([1]; 300 mg/day, Baseline): 102.5 pmol/L
Serum estradiol, Mean ([1]; 300 mg/day, Day 8): 104.0 pmol/L
Serum estradiol, Mean ([1]; 300 mg/day, Day 15): 97.8 pmol/L
Serum estradiol, Mean ([1]; 300 mg/day, Day 22): 95.5 pmol/L
Serum estradiol, Mean ([1]; 300 mg/day, Day 28): 89.7 pmol/L
Free Testosterone, Max ([2]; 100 mg/day, Baseline (Visit 2)): 12.20 ng/dL
Free Testosterone, Mean ± SD ([2]; 100 mg/day, Baseline (Visit 2)): 8.35 ± 2.536 ng/dL
Free Testosterone, Median ([2]; 100 mg/day, Baseline (Visit 2)): 8.40 ng/dL
Free Testosterone, Min ([2]; 100 mg/day, Baseline (Visit 2)): 3.20 ng/dL
Free Testosterone, Max ([2]; 100 mg/day, Week 2): 17.7 ng/dL
Free Testosterone, Mean ± SD ([2]; 100 mg/day, Week 2): 11.6 ± 3.93 ng/dL
Free Testosterone, Median ([2]; 100 mg/day, Week 2): 10.3 ng/dL
Free Testosterone, Min ([2]; 100 mg/day, Week 2): 5.7 ng/dL
Free Testosterone, Max ([2]; 100 mg/day, Week 4): 18.2 ng/dL
Free Testosterone, Mean ± SD ([2]; 100 mg/day, Week 4): 11.3 ± 3.40 ng/dL
Free Testosterone, Median ([2]; 100 mg/day, Week 4): 10.8 ng/dL
Free Testosterone, Min ([2]; 100 mg/day, Week 4): 6.4 ng/dL
Free Testosterone, Max [2, 4]: 13.30 ng/dL
Free Testosterone, Mean ± SD [2, 4]: 8.93 ± 0.023 ng/dL
Free Testosterone, Median [2, 4]: 9.80 ng/dL
Free Testosterone, Min [2, 4]: 4.90 ng/dL
Free Testosterone, % Change from Baseline, Mean ± SD ([2]; 100 mg/day, to Week 2): 0.4 ± 0.00387%
Free Testosterone, Max ([2]; 200 mg/day, Baseline (Visit 2)): 15.90 ng/dL
Free Testosterone, Mean ± SD ([2]; 200 mg/day, Baseline (Visit 2)): 8.48 ± 3.043 ng/dL
Free Testosterone, Median ([2]; 200 mg/day, Baseline (Visit 2)): 8.50 ng/dL
Free Testosterone, Min ([2]; 200 mg/day, Baseline (Visit 2)): 4.30 ng/dL
Free Testosterone, Max ([2]; 200 mg/day, Week 2): 16.4 ng/dL
Free Testosterone, Mean ± SD ([2]; 200 mg/day, Week 2): 10.6 ± 3.52 ng/dL
Free Testosterone, Median ([2]; 200 mg/day, Week 2): 10.0 ng/dL
Free Testosterone, Min ([2]; 200 mg/day, Week 2): 4.8 ng/dL
Free Testosterone, Max ([2]; 200 mg/day, Week 4): 19.4 ng/dL
Free Testosterone, Mean ± SD ([2]; 200 mg/day, Week 4): 11.8 ± 3.80 ng/dL
Free Testosterone, Median ([2]; 200 mg/day, Week 4): 12.2 ng/dL
Free Testosterone, Min ([2]; 200 mg/day, Week 4): 5.2 ng/dL
Free Testosterone, Max [2, 5]: 16.80 ng/dL
Free Testosterone, Mean ± SD [2, 5]: 9.10 ± 3.307 ng/dL
Free Testosterone, Median [2, 5]: 8.00 ng/dL
Free Testosterone, Min [2, 5]: 5.40 ng/dL
Free Testosterone, Max ([2]; 300 mg/day, Baseline (Visit 2)): 12.30 ng/dL
Free Testosterone, Mean ± SD ([2]; 300 mg/day, Baseline (Visit 2)): 8.19 ± 2.966 ng/dL
Free Testosterone, Median ([2]; 300 mg/day, Baseline (Visit 2)): 8.20 ng/dL
Free Testosterone, Max ([2]; 300 mg/day, Week 2): 22.0 ng/dL
Free Testosterone, Mean ± SD ([2]; 300 mg/day, Week 2): 12.1 ± 4.96 ng/dL
Free Testosterone, Median ([2]; 300 mg/day, Week 2): 12.9 ng/dL
Free Testosterone, Min ([2]; 300 mg/day, Week 2): 0.2 ng/dL
Free Testosterone, Max ([2]; 300 mg/day, Week 4): 21.2 ng/dL
Free Testosterone, Mean ± SD ([2]; 300 mg/day, Week 4): 12.5 ± 5.00 ng/dL
Free Testosterone, Median ([2]; 300 mg/day, Week 4): 14.0 ng/dL
Free Testosterone, Min ([2]; 300 mg/day, Week 4): 0.1 ng/dL
Free Testosterone, Max [2, 6]: 17.30 ng/dL
Free Testosterone, Mean ± SD [2, 6]: 9.30 ± 3.567 ng/dL
Free Testosterone, Median [2, 6]: 9.80 ng/dL
Free Testosterone, Min [2, 6]: 0.30 ng/dL
Sex Hormone Binding Globulin, Max ([3]; 100 mg/day): 35.0 nmol/L
Sex Hormone Binding Globulin, Mean ± SD ([3]; 100 mg/day): 18.4 ± 6.96 nmol/L
Sex Hormone Binding Globulin, Median ([3]; 100 mg/day): 17.0 nmol/L
Sex Hormone Binding Globulin, Min ([3]; 100 mg/day): 8.5 nmol/L
Sex Hormone Binding Globulin, Max ([3]; 200 mg/day): 51.0 nmol/L
Sex Hormone Binding Globulin, Mean ± SD ([3]; 200 mg/day): 19.5 ± 11.12 nmol/L
Sex Hormone Binding Globulin, Median ([3]; 200 mg/day): 18.0 nmol/L
Sex Hormone Binding Globulin, Min ([3]; 200 mg/day): 3.7 nmol/L
Sex Hormone Binding Globulin, Max ([3]; 300 mg/day): 48.0 nmol/L
Sex Hormone Binding Globulin, Mean ± SD ([3]; 300 mg/day): 20.0 ± 10.28 nmol/L
Sex Hormone Binding Globulin, Median ([3]; 300 mg/day): 19.0 nmol/L
Sex Hormone Binding Globulin, Min ([3]; 300 mg/day): 5.6 nmol/L
